The values that follow come from patent US20230372498A1, “PLK1 SELECTIVE DEGRADATION INDUCING COMPOUND” (UPPTHERA, priority 2020, published 2023).

A value given as a limit tells only on which side of the number the result lay.

In the assay the target is T1, PLK1 (Homo sapiens, UniProt P53350).
T1 construct: endogenous in cells; host or cells: HeLa
As to the kind of experiment: PLK1 protein degradation in HeLa cells, Western blotting (PLK1/GAPDH ratio). It is filed as cell-based. To be noted: 6 hours compound incubation; for Dmax: thymidine block and release, 10 points three-fold from 3 μM, PLK1 to GAPDH ratio, read-out: Dmax. Summed up: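 Thymidine-synchronised HeLa cells (2 mM, 24 h) released 4 h into complete medium, then treated 6 h with compound in 10-point 3-fold dilutions from 3 μM. RIPA lysates (15 μg protein) run on SDS-PAGE; PLK1 Western blot normalised to GAPDH.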

T1 sequence (P53350 whole entry): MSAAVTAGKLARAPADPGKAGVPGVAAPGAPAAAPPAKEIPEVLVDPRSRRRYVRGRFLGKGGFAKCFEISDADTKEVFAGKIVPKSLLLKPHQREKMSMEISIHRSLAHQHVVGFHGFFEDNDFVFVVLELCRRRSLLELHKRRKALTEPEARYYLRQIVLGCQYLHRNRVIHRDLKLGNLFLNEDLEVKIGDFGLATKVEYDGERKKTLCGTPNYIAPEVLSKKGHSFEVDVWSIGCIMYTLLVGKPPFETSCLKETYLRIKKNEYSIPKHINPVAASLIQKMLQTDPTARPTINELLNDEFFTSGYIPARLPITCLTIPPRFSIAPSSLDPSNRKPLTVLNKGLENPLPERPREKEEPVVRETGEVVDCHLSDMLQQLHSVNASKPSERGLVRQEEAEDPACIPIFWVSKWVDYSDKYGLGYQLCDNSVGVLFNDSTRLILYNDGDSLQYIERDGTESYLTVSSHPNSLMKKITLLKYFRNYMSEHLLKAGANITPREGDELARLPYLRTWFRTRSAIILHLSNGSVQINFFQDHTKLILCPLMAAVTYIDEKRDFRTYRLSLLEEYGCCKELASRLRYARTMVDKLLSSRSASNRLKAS

For `COc1cc(C(=O)NC2CCN(CCOCCOCC(=O)Nc3cccc4c3C(=O)N(C3CCC(=O)NC3=O)C4=O)CC2)c(F)cc1Nc1ncc2c(n1)N(C1CCCC1)CC(F)(F)C(=O)N2C` (stereo not shown) [Compound 26, 4-((9-cyclopentyl-7,7-difluoro-5-methyl-6-oxo-6,7,8,9-tetrahydro-5H-pyrimido[4,5-b][1,4]diazepin-2-yl)amino)-N-(1-(2-(2-(2-((2-(2,6-dioxopiperidin-3-yl)-1,3-dioxoisoindolin-4-yl)amino)-2-oxoethoxy)ethoxy)ethyl)piperidin-4-yl)-2-fluoro-5-methoxybenzamide], the Dmax is below 60%. On to `COc1cc(C(=O)NC2CCCN(CCOCCOCCNc3cccc4c3C(=O)N(C3CCC(=O)NC3=O)C4=O)C2)c(F)cc1Nc1ncc2c(n1)N(C1CCCC1)CC(F)(F)C(=O)N2C` (stereo not shown) [Example 104, 4-((9-cyclopentyl-7,7-difluoro-5-methyl-6-oxo-6,7,8,9-tetrahydro-5H-pyrimido[4,5-b][1,4]diazepin-2-yl)amino)-N-(1-(2-(2-(2-((2-(2,6-dioxopiperidin-3-yl)-1,3-dioxoisoindolin-4-yl)amino)ethoxy)ethoxy)ethyl)piperidin-3-yl)-2-fluoro-5-methoxybenzamide], for which the Dmax was at least 80%. Besides, the DC50 (measured only if the grade of Dmax is A or B) was at most 50 nM.

In the case of `COc1cc(C(=O)NC2CCN(Cc3cn(CCNC(=O)CNc4cccc5c4C(=O)N(C4CCC(=O)NC4=O)C5=O)nn3)CC2)c(F)cc1Nc1ncc2c(n1)N(C1CCCC1)CC(F)(F)C(=O)N2C` (stereo not shown) [Compound 47, 4-((9-cyclopentyl-7,7-difluoro-5-methyl-6-oxo-6,7,8,9-tetrahydro-5H-pyrimido[4,5-b][1,4]diazepin-2-yl)amino)-N-(1-((1-(2-(2-((2-(2,6-dioxopiperidin-3-yl)-1,3-dioxoisoindolin-4-yl)amino)acetamido)ethyl)-1H-1,2,3-triazol-4-yl)methyl)piperidin-4-yl)-2-fluoro-5-methoxybenzamide], the Dmax was below 60%.
